Results reported in PMC1972543, “Elevated carbohydrate phosphotransferase activity in human hepatoma and phosphorylation of cathepsin D” (British Journal of Cancer, 1991).
One block for each compound: values may come before it.

Legend:
[1] = target: T1, GlcNAc-phosphotransferase (UDP-GlcNAc: lysosomal enzyme GlcNAc alpha 1-phosphotransferase) (Homo sapiens, UniProt Q3T906); assay: radiometric transferase assay, QAE-Sephadex; format: biochemical; conditions: normal liver homogenate, range of three preparations, Mn2+, Mg2+, ATP, pH 7.4, 37 °C
T1 construct: gene GNPTAB; native enzyme in 600 g supernatant of human normal liver homogenate (autopsy tissue), not purified; alpha/beta precursor is cleaved into alpha and beta chains (alpha2beta2gamma2); with N-acetylglucosamine-1-phosphotransferase subunit gamma

[2] = target: T2, phosphodiester glycosidase (phosphodiester alpha-N-acetylglucosaminidase) (Homo sapiens, UniProt Q9UK23); assay: radiometric release of [3H]GlcNAc, QAE-Sephadex; format: biochemical; conditions: liver homogenate; Triton X-100, N-acetylmannosamine, EDTA, pH 7.4, 37 °C; labelled compound
T2 construct: gene NAGPA; native enzyme in 600 g supernatant of human normal liver and hepatoma homogenates, not purified
T2 sequence (Q9UK23 50-515): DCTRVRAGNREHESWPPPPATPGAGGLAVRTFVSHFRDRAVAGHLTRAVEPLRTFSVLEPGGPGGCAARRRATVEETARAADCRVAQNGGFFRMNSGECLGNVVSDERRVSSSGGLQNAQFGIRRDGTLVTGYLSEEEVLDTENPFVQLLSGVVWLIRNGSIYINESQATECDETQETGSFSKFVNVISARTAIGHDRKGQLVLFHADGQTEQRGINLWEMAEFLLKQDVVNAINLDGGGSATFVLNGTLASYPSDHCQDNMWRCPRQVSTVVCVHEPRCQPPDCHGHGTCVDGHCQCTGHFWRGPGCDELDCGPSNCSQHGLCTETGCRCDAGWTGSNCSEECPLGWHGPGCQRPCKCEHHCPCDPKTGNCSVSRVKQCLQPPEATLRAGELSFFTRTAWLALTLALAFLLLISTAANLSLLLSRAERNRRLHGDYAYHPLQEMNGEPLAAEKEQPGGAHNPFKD

T1 sequence (Q3T906 1-928): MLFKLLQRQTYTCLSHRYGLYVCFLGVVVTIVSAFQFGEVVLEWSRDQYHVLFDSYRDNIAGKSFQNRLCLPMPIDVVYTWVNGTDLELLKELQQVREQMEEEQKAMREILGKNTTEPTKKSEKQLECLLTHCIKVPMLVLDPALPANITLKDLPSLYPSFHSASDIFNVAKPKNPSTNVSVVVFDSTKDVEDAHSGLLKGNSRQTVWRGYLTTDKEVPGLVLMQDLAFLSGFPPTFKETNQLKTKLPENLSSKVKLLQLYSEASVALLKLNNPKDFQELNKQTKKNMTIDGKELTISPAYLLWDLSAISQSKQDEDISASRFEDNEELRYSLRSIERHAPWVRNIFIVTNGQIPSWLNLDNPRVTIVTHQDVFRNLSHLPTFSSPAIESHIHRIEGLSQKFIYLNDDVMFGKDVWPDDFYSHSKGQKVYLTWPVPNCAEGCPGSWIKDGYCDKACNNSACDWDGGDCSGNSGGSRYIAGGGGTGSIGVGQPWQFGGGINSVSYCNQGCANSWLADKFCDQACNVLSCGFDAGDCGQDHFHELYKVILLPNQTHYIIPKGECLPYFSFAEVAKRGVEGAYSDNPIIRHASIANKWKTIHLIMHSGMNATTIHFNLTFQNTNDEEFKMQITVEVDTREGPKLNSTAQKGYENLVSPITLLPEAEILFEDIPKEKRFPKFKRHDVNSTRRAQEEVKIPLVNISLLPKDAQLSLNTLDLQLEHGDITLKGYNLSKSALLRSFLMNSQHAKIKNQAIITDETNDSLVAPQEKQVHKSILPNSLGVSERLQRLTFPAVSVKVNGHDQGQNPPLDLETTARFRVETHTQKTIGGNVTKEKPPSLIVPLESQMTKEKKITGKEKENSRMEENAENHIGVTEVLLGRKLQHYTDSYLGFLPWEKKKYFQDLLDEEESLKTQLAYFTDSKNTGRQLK
T1 sequence (Q3T906 929-1256): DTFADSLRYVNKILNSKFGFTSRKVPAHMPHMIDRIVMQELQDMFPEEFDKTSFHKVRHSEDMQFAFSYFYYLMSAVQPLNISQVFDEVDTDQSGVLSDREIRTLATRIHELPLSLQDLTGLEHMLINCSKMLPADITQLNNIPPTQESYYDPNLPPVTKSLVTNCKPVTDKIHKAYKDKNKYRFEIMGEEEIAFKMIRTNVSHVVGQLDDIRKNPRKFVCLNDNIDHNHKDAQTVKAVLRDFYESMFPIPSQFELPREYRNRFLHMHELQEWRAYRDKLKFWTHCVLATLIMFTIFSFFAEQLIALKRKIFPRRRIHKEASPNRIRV
T1 sequence (Q9UJJ9 25-305 partner): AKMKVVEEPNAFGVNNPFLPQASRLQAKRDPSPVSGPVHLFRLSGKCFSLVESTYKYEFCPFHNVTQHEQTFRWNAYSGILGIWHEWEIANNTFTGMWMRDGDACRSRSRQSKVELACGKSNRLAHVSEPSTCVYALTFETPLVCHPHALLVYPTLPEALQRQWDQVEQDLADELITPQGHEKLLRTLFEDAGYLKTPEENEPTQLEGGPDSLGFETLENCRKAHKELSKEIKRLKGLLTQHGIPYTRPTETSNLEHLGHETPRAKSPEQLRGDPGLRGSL

- Km ([1]; acceptor alpha-methylmannoside, labelled compound): 0.027 to 0.037 mM
Structure (SMILES): CC(=O)N[C@H]1[C@@H](OP(=O)(O)OP(=O)(O)OC[C@H]2O[C@@H](n3ccc(=O)[nH]c3=O)[C@H](O)[C@@H]2O)O[C@H](CO)[C@@H](O)[C@@H]1O [UDP-GlcNAc]

Structure (SMILES): CO[C@H]1O[C@H](COP(=O)(O)O[C@H]2O[C@H](CO)[C@@H](O)[C@H](O)[C@H]2NC(C)=O)[C@@H](O)[C@H](O)[C@@H]1O [[6-3H]GlcNAc-P-6-(alpha-methyl)mannoside]
- radiometric release of [3H]GlcNAc, QAE-Sephadex [2]: amount of the labelled substrate used for the glycosidase assay was not sufficient to measure Km

- Km ([1]; co-substrate [beta-32P]UDP-GlcNAc): 50 to 100 mM
Structure (SMILES): CO[C@H]1O[C@H](CO)[C@@H](O)[C@H](O)[C@@H]1O [alpha-methylmannoside]
